Earlier results on 1 molecule are cited in patent publication US10189872B2, “Crystalline form of nicotinamide riboside” (W. R. Grace & Co.-Conn., priority 2015, dated 2019).

Structures are written as SMILES.

For the data set the following is noted: mice on a high-fat diet supplemented with nicotinamide riboside; 2012 study.

As to `NC(=O)c1ccc[n+]([C@@H]2O[C@H](CO)[C@@H](O)[C@H]2O)c1` [nicotinamide riboside, Nicotinamide riboside], the “less weight gained than mice eating the same high-fat diet without nicotinamide riboside” value is recorded as 60%.
